Assay results published in patent EP4631938A1, “NITROGEN-CONTAINING HETEROCYCLE WITH SEROTONIN RECEPTOR-BINDING ACTIVITY AND CARBOCYCLIC DERIVATIVE” (Shionogi & Co., Ltd, priority 2022, dated 2024).

Assays:
[1] = molecular target: T1, human recombinant 5-HT2A receptor (Homo sapiens, UniProt P28223); test: Test Example 1: 5-HT2A receptor binding inhibition test ([3H]-Ketanserin; non-specific ligand Serotonin HCl)
T1 construct: expressed in transfected cells; host or cells: Jump-In HEK cells (membrane preparation)
T1 sequence (P28223 whole entry): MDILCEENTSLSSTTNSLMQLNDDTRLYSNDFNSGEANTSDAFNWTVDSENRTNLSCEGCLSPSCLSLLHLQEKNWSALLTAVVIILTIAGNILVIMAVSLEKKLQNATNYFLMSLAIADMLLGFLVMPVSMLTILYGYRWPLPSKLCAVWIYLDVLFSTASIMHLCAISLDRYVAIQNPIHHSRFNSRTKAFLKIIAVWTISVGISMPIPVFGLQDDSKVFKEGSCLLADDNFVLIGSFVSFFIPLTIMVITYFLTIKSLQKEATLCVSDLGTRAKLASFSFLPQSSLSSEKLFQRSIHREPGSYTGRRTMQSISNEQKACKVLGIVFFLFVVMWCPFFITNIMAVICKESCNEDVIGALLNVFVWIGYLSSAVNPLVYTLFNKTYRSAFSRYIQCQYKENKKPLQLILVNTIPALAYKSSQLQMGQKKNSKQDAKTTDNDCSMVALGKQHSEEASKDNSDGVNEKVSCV
Description: The Kd value is calculated when the lot of the cell membrane is changed. 1 mmol/L non-specific binding calculating compound dissolved in DMSO or DMSO is previously dispensed to the microplate by 0.5 µL, and the cell membrane is diluted with an Assay buffer. The radioactive ligand solution is diluted step by step, and counts are checked with a liquid scintillator. The Assay buffer containing diluted cell membranes is dispensed by 50 µL/well into the microplate. The radioactive ligand solution is then dispensed by 50 µL/well into the microplate and the plate is sealed. The microplate is allowed to stand for 1.5 hours at room temperature (25°C). During this time, 50 mmol/L Tris-HCl (pH 7.4) is dispensed by 50 µL/well on the GF/B UniFilter plate and allowed to stand at 4°C for 1 hour or longer. Thereafter, filtration is performed with a Cell Harvester (PerkinElmer). The radioactive ligand solution is dispensed by 10 µL/well into empty wells of the GF/B UniFilter plate. After drying the GF/B UniFilter plate at room temperature, MicroScinti20 is dispensed by 50 µL/well into the GF/B UniFilter plate, and the plate is sealed. GF/B UniFilter plate is allowed to stand at room temperature overnight. The radioactivity of [^3H]-Ketanserin bound to the 5-HT2A receptor is measured using Microbeta2 (PerkinElmer) at a measurement time of 1 min/well. The Saturation curve is drawn from the measured value, and the Kd value is calculated from the slope of the Scatchard Plot.
A compound solution dissolved in DMSO is dispensed to a microplate by 0.5 µL, and a cell membrane and a hot ligand are each diluted with an Assay buffer. The Assay buffer containing diluted cell membrane is then dispensed by 50 µL/well into the microplate. The radioactive ligand solution is then dispensed by 50 µL/well into the microplate and the plate is sealed. Thereafter, the microplate is allowed to stand at room temperature (25°C) for 1.5 hours. During this time, 50 mmol/L Tris-HCl (pH 7.4) is dispensed by 50 µL/well into the GF/B UniFilter plate and allowed to stand at 4°C for 1 hour or longer. Thereafter, filtration is performed with a Cell Harvester (PerkinElmer). After drying the GF/B UniFilter plate at room temperature, MicroScinti20 is dispensed by 50 µL/well into the GF/B UniFilter plate, and the plate is sealed. GF/B UniFilter plate is allowed to stand at room temperature overnight. The radioactivity of [^3H]-Ketanserin bound to the 5-HT2A receptor is measured using Microbeta2 (PerkinElmer) at a measurement time of 1 min/well. Non-specific binding is calculated from the radioactivity of [^3H]-Ketanserin in the presence of 500 µmol/L Serotonin HCl of unlabeled ligand, and total binding is calculated from the radioactivity of [^3H]-Ketanserin in the absence of the compound of the present invention (Vehicle). Finally, the Ki value is calculated from the dose-response curve.
(The binding activity of the compound according to the present invention is calculated from the following binding inhibition rate (%).) Inhibition rate (%) = [1−(c−a)/(b−a)] × 100 [formula] • a; average cpm of non-specific binding • b; average cpm of total binding • c; cpm in the presence of the test compound
The compounds of the present invention were tested essentially as described above.

[2] = molecular target: T2, human recombinant 5-HT2C receptor (Homo sapiens, UniProt P28335); test: Test Example 2: 5-HT2C receptor binding inhibition test ([3H]-Mesulergine; non-specific ligand Serotonin HCl)
T2 construct: expressed in transfected cells; host or cells: Jump-In HEK cells (membrane preparation)
T2 sequence (P28335 33-458): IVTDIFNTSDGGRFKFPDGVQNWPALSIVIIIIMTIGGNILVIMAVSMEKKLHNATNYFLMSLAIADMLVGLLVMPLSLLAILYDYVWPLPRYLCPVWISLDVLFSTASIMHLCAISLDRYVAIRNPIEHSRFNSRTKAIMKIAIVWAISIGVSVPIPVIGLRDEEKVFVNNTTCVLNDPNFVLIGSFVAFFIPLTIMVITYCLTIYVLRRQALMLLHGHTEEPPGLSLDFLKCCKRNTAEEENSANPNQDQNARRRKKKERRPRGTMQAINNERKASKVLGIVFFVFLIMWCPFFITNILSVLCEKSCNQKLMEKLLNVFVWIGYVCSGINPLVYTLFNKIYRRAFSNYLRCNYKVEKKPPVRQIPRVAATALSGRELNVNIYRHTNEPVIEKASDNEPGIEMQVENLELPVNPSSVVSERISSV
Outline: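 Ki values come from dose-response curves of [3H]-mesulergine displacement from human 5-HT2C membranes after 2 h at 37°C, scored by scintillation counting of filter-bound radioactivity. Serotonin HCl (500 µmol/L) set non-specific binding; Kd per membrane lot was taken from Scatchard plots.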

[3] = molecular target: T3, human ether-a-go-go related gene (hERG) channel (Homo sapiens, UniProt Q12809); test: Test Example 3: hERG test (FluxORII thallium flux, FLIPR, 8000 cells/well); assay type: cell-based; conditions: CHO cells expressing hERG channel, compound reacted for 10 minutes, 100% inhibition = E-4031 10.3 µmol/L
T3 construct: expressed in transfected cells; host or cells: CHO cells
T3 sequence (Q12809 whole entry): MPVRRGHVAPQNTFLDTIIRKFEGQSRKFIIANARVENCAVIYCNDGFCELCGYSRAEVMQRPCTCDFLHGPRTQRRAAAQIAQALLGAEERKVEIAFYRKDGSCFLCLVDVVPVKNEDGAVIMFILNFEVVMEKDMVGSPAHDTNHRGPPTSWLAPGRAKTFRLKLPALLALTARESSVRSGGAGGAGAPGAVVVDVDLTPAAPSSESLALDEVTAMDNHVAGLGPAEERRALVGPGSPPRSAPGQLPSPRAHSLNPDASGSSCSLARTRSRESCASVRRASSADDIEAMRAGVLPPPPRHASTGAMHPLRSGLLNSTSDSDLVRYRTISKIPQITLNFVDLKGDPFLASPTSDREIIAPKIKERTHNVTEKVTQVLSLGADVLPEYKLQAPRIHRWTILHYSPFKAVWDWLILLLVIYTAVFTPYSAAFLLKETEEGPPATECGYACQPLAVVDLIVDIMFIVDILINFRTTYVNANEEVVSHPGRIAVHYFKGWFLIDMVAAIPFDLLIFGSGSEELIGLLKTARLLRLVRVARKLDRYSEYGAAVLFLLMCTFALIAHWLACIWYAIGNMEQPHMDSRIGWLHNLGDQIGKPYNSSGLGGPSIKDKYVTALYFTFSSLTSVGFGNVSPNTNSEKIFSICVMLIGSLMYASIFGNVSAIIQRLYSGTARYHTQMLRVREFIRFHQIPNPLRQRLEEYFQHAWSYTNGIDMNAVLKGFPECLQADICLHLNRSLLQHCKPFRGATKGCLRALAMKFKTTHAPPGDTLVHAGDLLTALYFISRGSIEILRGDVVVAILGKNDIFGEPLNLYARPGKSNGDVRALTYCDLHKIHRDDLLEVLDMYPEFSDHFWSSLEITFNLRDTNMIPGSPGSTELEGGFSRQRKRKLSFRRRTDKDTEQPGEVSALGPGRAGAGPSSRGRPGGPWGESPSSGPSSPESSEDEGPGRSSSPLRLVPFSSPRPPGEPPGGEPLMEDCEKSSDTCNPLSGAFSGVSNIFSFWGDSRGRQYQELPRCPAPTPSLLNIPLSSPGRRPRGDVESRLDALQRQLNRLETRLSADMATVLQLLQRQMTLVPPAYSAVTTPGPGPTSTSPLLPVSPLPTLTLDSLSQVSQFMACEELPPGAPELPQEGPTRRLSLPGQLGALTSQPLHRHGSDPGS
Description: (§1) For the purpose of evaluating risk of an electrocardiogram QT interval prolongation of the compound of the present invention, effects of the compound are studied by evaluating the activity of potassium channel using CHO cells expressing human ether-a-go-go related gene (hERG) channel.
(§2) Evaluation is performed using a FluxORII Green Potassium Ion Channel Assay kit (Invitrogen: Molecular Probes).
Cells (8000 cells/well/40 µL) are seeded in a 384 assay plate, and are incubated overnight (37°C, 5% CO2). […]
(§3) A cell plate is placed on a cell-based kinetic assay system FLIPR (Molecular Devices, LLC.), and the compound is added to the cells so as to have a desired concentration and reacted for 10 minutes. When a mixed solution of potassium and thallium as a stimulator is added thereto, the potassium channel is opened, and thallium that flowed into the cells binds to the fluorescent indicator, so that the intracellular fluorescence signal increases, and the potassium channel current is detected as a fluorescence signal. […] Then, the inhibition rate is calculated from the signal intensity at each concentration. IC50 is calculated from the inhibition rate at each concentration.

[4] = molecular target: T2, human recombinant 5-HT2C receptor; test: Test Example 2-2: 5-HT2C receptor binding inhibition test ([3H]-Mesulergine; non-specific ligand Ketanserin); conditions: non-specific binding with 500 µmol/L Ketanserin, 37°C, 2 hours
Outline: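 Membranes expressing the receptor were incubated with compound and [3H]-Mesulergine for 2 h at 37 °C, then filtered and counted by scintillation. Non-specific binding was defined with 500 µmol/L Ketanserin. Percent inhibition versus vehicle gave dose-response curves, from which Ki was derived using a Kd from Scatchard saturation analysis.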

[5] = molecular target: T1, human recombinant 5-HT2A receptor; test: Test Example 1-2: 5-HT2A receptor binding inhibition test ([3H]-Ketanserin; non-specific ligand Ketanserin)
Outline: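 Ki values were derived from dose-response inhibition of [3H]-ketanserin binding; nonspecific binding was set with 500 µmol/L ketanserin, and Kd was set for each membrane lot from Scatchard saturation plots. Incubation lasted 1.5 h at room temperature (25 °C). Bound radioligand was harvested on Tris-HCl (pH 7.4)-presoaked filters and counted.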

[6] = molecular target: T3, human ether-a-go-go related gene (hERG) channel; test: Test Example 3-2: hERG test (FluxORII thallium flux, FLIPR, 4000 cells/well); assay type: cell-based; conditions: CHO cells expressing hERG channel, compound reacted for 10 minutes, 100% inhibition = E-4031 10.3 µmol/L
Description: as §1, §2
Cells (4000 cells/well/40 µL) are seeded in a 384 assay plate, and are incubated overnight (37°C, 5% CO2). After replacing the medium with a Wash buffer (lxHBSS, 20 mM HEPES) with a microplate washer, a fluorescent indicator is added to the medium and allowed to incubate (37°C, 5% CO2) for 1 hour for incorporation of the fluorescent indicator into cells.
as §3

[7] = [3H]-Ketanserin, non-specific binding with 500 µmol/L Serotonin HCl, room temperature (25°C), 1.5 hours, read-out: h 5-HT2A Ki
[8] = [3H]-Mesulergine, non-specific binding with 500 µmol/L Serotonin HCl, 37°C, 2 hours
[9] = [3H]-Ketanserin, non-specific binding with 500 µmol/L Ketanserin, room temperature (25°C), 1.5 hours, read-out: h 5-HT2A Ki
[10] = human serotonin 5-HT2C receptor binding activity

| Compound | Ki [1, 7] [nM] | Ki [2, 8] [nM] | IC50 [6] [nM] | Ki [5, 9] [nM] | Ki [2, 10] [nM] | other results |
| --- | --- | --- | --- | --- | --- | --- |
| Cn1ncc(Br)c1-c1cc(Nc2ccc(C(F)(F)F)cc2)ccc1OCCO [Compound I-001] | 0.447 | 1.44 | – | – | – | – |
| Cn1ncc(Br)c1-c1cc(Nc2ccc(F)cc2)ccc1OCCO [Compound I-003] | 0.597 | 11.4 | – | – | – | – |
| Cn1ncc(Br)c1-c1cc(Nc2ccc(C(F)(F)F)cn2)ccc1OCCO [Compound I-004] | 0.42 | 0.387 | – | – | – | – |
| Cn1ncc(Br)c1-c1cc(Nc2ncc(C(F)(F)F)s2)ccc1OCCO [Compound I-005] | 0.301 | 1.08 | – | – | – | – |
| Cn1ncc(Br)c1-c1cc(Nc2ccc(C(F)(F)F)nn2)ccc1OCCO [Compound I-007] | 0.548 | 14.9 | – | – | – | – |
| Cn1nccc1-c1cc(Nc2ncc(C(F)(F)F)cc2F)ccc1OCCO [Compound I-009] | 0.337 | 8.7 | – | – | – | – |
| Cn1ncc(Br)c1-c1cc(Nc2ncc(C(F)(F)F)cc2F)ncc1OCCO [Compound I-062] | – | – | – | – | – | IC50 [3]: > 52000 nM; Ki [4]: 0.366 nM; Ki [5]: 0.286 nM |
| Cc1cnn(C)c1-c1cc(Nc2ncc(C(F)(F)F)cc2F)ncc1OCCO [Compound I-063] | – | – | – | – | – | IC50 [3]: > 52000 nM; Ki [4]: 2.09 nM; Ki [5]: 0.337 nM |
| Cn1ncc(Br)c1-c1cc(Nc2ncc(C(F)(F)F)cc2F)ncc1OC(F)(F)CO [Compound I-228] | – | – | 50600 | 0.316 | 0.748 | – |
| Cc1nc(C)c(-c2nc(Nc3ccc(C(F)(F)F)cc3)c(F)cc2OCCO)c(C)n1 [Compound I-267] | – | – | > 52000 | 0.465 | 0.786 | – |
| Cc1nc(C)c(-c2cc(Nc3ccc(-c4ccc(F)cc4)cn3)cnc2O[C@H](C)CO)c(C)n1 [Compound I-271] | – | – | > 52000 | 0.4 | 3.92 | – |
| CNC(=O)c1ccc(F)c(-c2cc(Nc3ncc(C(F)(F)F)cc3F)ncc2OCCO)c1F [Compound I-359] | – | – | > 52000 | 0.952 | 4.57 | – |
| Cn1ncc(Br)c1-c1cc(Nc2ccc(C(F)(F)F)nc2)ccc1OCCO [I-002] | – | 19.2 | – | – | – | Ki [1]: 0.375 nM |
